Experimental data as given in PMC7496931, “Activation of Sirtuin 2 Inhibitors Employing Photoswitchable Geometry and Aqueous Solubility” (Chemmedchem, 2020).
Where two headings read alike, the source gives them in different places.

Assays:
[1] = target: T1, Sirt1 (Homo sapiens, UniProt Q96EB6); assay: Fluorescence-based ZMAL deacetylase activity assay, Sirt1; assay type: biochemical; settings: non-irradiated
T1 construct: Expression and purification of Sirt1_133−747, Sirt2_56−356, and Sirt3_118−395 was carried out as described previously; made in house
T1 sequence (Q96EB6 133-747): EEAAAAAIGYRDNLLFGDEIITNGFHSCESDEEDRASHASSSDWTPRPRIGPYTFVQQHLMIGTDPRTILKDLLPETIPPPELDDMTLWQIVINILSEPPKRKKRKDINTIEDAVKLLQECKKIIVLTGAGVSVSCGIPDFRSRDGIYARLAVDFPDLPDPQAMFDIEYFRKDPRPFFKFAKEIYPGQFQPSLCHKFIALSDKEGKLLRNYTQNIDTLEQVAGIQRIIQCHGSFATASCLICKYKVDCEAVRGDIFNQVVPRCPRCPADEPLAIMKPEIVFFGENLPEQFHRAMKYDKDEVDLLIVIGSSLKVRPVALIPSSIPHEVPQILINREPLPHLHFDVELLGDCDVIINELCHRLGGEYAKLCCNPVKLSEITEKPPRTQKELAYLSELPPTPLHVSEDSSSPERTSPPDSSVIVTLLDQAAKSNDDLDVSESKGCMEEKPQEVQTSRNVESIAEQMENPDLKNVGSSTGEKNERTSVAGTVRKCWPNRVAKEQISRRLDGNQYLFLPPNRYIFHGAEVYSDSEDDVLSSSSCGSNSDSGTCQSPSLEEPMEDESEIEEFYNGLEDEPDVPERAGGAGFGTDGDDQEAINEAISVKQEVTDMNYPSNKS
Method: (§1) The effect of the compounds on deacetylase activity of three human sirtuin isotypes (Sirt1–3) was investigated by a homogeneous fluorescence‐based assay, using (Z)‐Lys(acetyl)‐AMC (ZMAL) as substrate. In order to determine the impact of photoisomerization, the respective compounds were irradiated (365 nm, 5 min) in DMSO prior to incubation in the enzyme assay mixture. The results of the irradiated probes were finally compared to non‐irradiated measurements.
(§2) Cloning, expression and purification of recombinant proteins: Expression and purification of Sirt1_133−747, Sirt2_56−356, and Sirt3_118−395 was carried out as described previously.27 Identity and purity were verified by SDS‐PAGE.
(§3) Fluorescence‐based activity assay: The inhibitory effect of compounds on Sirt1–3 was detected via a previously reported fluorescence‐based assay.29 The synthetic substrate (Z)‐Lys(acetyl)‐AMC (ZMAL) is deacetylated by sirtuins, followed by tryptic digestion and thereby release of 7‐aminomethylcoumarin, leading to a fluorescent readout. Inhibition was determined by comparing percentage substrate conversion to a DMSO control after subtraction of the blank fluorescence signal. All compounds were tested at 100 or 50 μM and 10 μM respectively. […] IC50 values were calculated with OriginPro 9.0 G using a non‐linear regression to fit the dose response curve (Figure S6). An enzyme‐free blank control and a 100 % conversion control using AMC instead of ZMAL were measured as well. Inhibition measurements were performed in biological duplicates for all compounds. […]
(§4) Fluorescence-Based Activity Assay (ZMAL-Assay)
(§5) The influence of the synthesized compounds on the deacetylase activity of the class I sirtuins Sirt1–3 was determined in a homogenous fluorescence-based enzyme assay, using the artificial substrate Z-(Ac)Lys-AMC (ZMAL). ZMAL is processed by sirtuins yielding Z-Lys-AMC.
(§6) The latter is subsequently cleaved by tryptic digestion, releasing 7-amino-4-methylcoumarin (AMC), excitation of which leads to a fluorescent read out (λex=390 nm; λem=460 nm). Instead, […]
(§7) contribute to the fluorescence signal. Therefore, the fluorescence intensity is proportional to the activity of the respective sirtuin.
(§8) After subtraction of the blank fluorescence signal (without enzyme) from the signal of the respective probe, the residual signal intensity is related to a 100 % conversion control (AMC), […]
(§9) yielding the percentage substrate conversion. Comparison of the determined substrate conversion with a no-inhibition DMSO control yields the percentage inhibition at the respective […]
(§10) For determination of IC50, inhibitory activity of the respective compound was determined at 8 to 10 distinct concentrations. The measured values were analysed by a non-linear fit to the dose-response curve using a four parameter logistic model (Figure S6):
(§11) Figure S6: Non-linear regression of the dose-response curves of compounds 15c and 15f at the thermal equilibrium (∆, black) and after 5 minutes of 365 nm irradiation (red). […]
A maximal polarization control using just DMSO and a minimal polarization control using 1 µL of the 400 µM solution of 22 instead of inhibitor were performed as well as a blank control containing 1 µL of DMSO in 19 µL assay buffer. The mixture was incubated 10 min at 37 °C […]
(§12) (1 picture or pasted object on this page, not shown here)

[2] = target: T2, Sirt2 (Homo sapiens, UniProt Q8IXJ6); assay: Fluorescence-based ZMAL deacetylase activity assay, Sirt2; assay type: biochemical; settings: non-irradiated; for inhibition at 100 µM / inhibition at 10 µM: read-out: Sirt2 inhibition, percent inhibition relative to controls; for IC50: read-out: Sirt2 inhibition, IC50
T2 construct: Expression and purification of Sirt1_133−747, Sirt2_56−356, and Sirt3_118−395 was carried out as described previously; made in house
T2 sequence (Q8IXJ6 56-356): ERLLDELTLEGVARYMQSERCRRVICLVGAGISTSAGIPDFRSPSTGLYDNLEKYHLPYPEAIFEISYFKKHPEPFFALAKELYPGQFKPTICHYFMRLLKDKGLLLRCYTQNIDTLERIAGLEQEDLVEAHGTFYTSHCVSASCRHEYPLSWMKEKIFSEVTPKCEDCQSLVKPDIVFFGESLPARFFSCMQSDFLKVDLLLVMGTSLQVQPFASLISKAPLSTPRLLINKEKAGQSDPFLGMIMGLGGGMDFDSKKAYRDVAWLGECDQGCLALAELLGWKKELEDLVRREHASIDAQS
Method: as §1, §2, §3, §4, §5, §6, §7, §8, §9, §10, §11
(§13) A maximal polarization control using just DMSO and a minimal polarization control using 1 µL of the 400 µM solution of 22 instead of inhibitor were performed as well as a blank control containing 1 µL of DMSO in 19 µL assay buffer. The mixture was incubated 10 min at 37 °C

[3] = target: T3, Sirt3 (Homo sapiens, UniProt Q9NTG7); assay: Fluorescence-based ZMAL deacetylase activity assay, Sirt3; assay type: biochemical; settings: non-irradiated; for IC50: read-out: Sirt3 inhibition, IC50
T3 construct: Expression and purification of Sirt1_133−747, Sirt2_56−356, and Sirt3_118−395 was carried out as described previously; made in house
T3 sequence (Q9NTG7 118-395): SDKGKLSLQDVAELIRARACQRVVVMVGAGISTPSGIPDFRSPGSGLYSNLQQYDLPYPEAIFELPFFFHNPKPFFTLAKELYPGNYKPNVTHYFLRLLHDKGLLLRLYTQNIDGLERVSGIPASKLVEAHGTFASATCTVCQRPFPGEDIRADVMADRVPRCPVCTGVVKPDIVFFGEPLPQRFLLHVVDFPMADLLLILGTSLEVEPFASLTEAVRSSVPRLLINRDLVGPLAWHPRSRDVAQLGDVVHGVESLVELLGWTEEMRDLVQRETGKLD
Method: as §1, §2, §3, §4, §5, §6, §7, §8, §9, §10, §11, §13

[4] = UV/Vis spectra and half-life of thermal Z→E isomerization; assay type: physicochemical
Method: Photochemistry: All photoisomerization experiments were conducted under ruby light of 630 nm and total exclusion of daylight. Illumination was executed using a Bio‐Link 254 Crosslinker from Vilber‐Lourmat equipped with six Vilber‐Lourmat T8‐L lamps (8 W, 365 nm). Visible light radiation of 630 nm (ruby) and 452 nm (blue) was derived from a Paulmann FlexLED 3D strip. All compounds were irradiated in solution using spectrophotometric grade solvents. Photoisomerization and UV/Vis‐spectra measurement was conducted in quartz glass cuvettes (114‐QS, Hellma Analytics) at room temperature.
UV/Vis Spectra and Half-Life of Thermal Isomerization
The half-life of the thermal Z→E isomerization after 5 minutes of 365 nm irradiation was determined by UV/Vis-spectroscopy. Therefore, solutions of the respective compounds (50 µM) in 5%, 50% or 90% DMSO in enzyme assay buffer (v/v) were prepared. An initial spectrum of the thermal equilibrium was recorded. After 5 minutes of irradiation with 365 nm the increase of absorbance at the thermal equilibrium maximum (λ∆max) was recorded as exemplified by compound 15c (Figure S3). Absorbance at λ = λ ∆max was plotted as a function of time. Non-linear regression yielded the half-life of the thermal Z→E isomerization (Table S1). For extrapolation of the reaction kinetics, the plateau value was set to the initial absorbance at λ=λ∆max. The following equation was used for non-linear regression:
y = (y0 − Plateau)e−kx + Plateau
Figure S3: Left: UV-Vis spectrum of 15c (50 µM) in assay buffer (5% DMSO, v/v) at the thermal equilibrium (∆) and the photostationary state (PSS) after UV irradiation (365 nm). Right:
Absorbance of 15c (50 µm) in assay buffer (5% DMSO, v/v) at λ∆max = 328 nm after 5 minutes of UV (365 nm) irradiation.
as §12

[5] = target: T2, Sirt2; set-up: method as in PMID 29685963; settings: lead 3, previously published; read-out: Sirt2 inhibition, IC50; cited from earlier work
[6] = read-out: Sirt3 inhibition, percent inhibition relative to controls
[7] = read-out: Sirt1 inhibition, percent inhibition relative to controls

Work on CNC(=O)c1cncc(/N=N/c2cc(C)c(N)c(C)c2)c1 [12 a] yielded an inhibition at 100 µM ([1]; @ 100 μM, read-out: Sirt1 inhibition, percent inhibition relative to controls) of 33%, an inhibition at 100 µM [2] of 45% and an inhibition at 100 µM [3, 6] of 45%.

In the case of Cc1cc(/N=N/c2cncc(C(=O)NCCO)c2)cc(C)c1N [12 d], the “Sirt1 inhibition (class)” value [1] is reported as “n.i. (n.i.: no inhibition detected (<30 % @ 100 μM))”, the inhibition at 100 µM [2] is reported as 43% and the inhibition at 100 µM [3, 6] is reported as 43%.

With CCOC(=O)c1cncc(/N=N/c2cc(C)c(N)c(C)c2)c1 [compound 11] the “Sirt1 inhibition (class)” value [1] was “n.i. (n.i.: no inhibition detected (<30 % @ 100 μM))”, the “Sirt2 inhibition (class)” value [2] was “n.i. (n.i.: no inhibition detected (<30 % @ 100 μM))” and the “Sirt3 inhibition (class)” value [3] was “n.i. (n.i.: no inhibition detected (<30 % @ 100 μM))”.

With NC(=O)c1cncc(OCc2cccc(/N=N/c3ccc(N4CCOCC4)cc3)c2)c1 [20 d] the “Sirt1 inhibition (class)” value [1] was “n.i. (n.i.: no inhibition detected (<30 % @ 100 μM))”, the inhibition at 10 µM [2] was 49% and the IC50 [2] was roughly 10 µM. The inhibition at 10 µM [3, 6] was 33%, the “thermal Z→E isomerization (in words)” value ([4]; aqueous solution) was “rapid thermal Z→E isomerization” and the melting point was 202.1 °C.

In the case of CCNC(=O)c1cncc(/N=N/c2cc(C)c(N)c(C)c2)c1 [12 b], the “Sirt1 inhibition (class)” value [1] is reported as “n.i. (n.i.: no inhibition detected (<30 % @ 100 μM))”, the inhibition at 10 µM [2] is reported as 16% and the inhibition at 10 µM [3, 6] is reported as 11%.

In the case of CCCCNC(=O)c1cncc(/N=N/c2cc(C)c(N)c(C)c2)c1 [12 c], the “Sirt1 inhibition (class)” value [1] is reported as “n.i. (n.i.: no inhibition detected (<30 % @ 100 μM))”, the inhibition at 10 µM [2] is reported as 17% and the inhibition at 10 µM [3, 6] is reported as 11%.

Cc1cc(/N=N/c2cncc(C(N)=O)c2)cc(C)c1O [7 b] showed an inhibition at 50 µM [1, 7] of 19%, an IC50 [2] of 10.8 ± 0.6 µM and an IC50 [3] of 7.9 ± 0.5 µM. The “thermal Z→E isomerization (in words)” value ([4]; in acetonitrile) was “rapid thermal isomerization” and the melting point was 166.4 °C.

In the case of COC(=O)c1cncc(/N=N/c2cc(C)c(N)c(C)c2)c1 [6 f], the “Sirt1 inhibition (class)” value [1] is reported as “n.i. (n.i.: no inhibition detected (<30 % @ 100 μM))”, the “Sirt2 inhibition (class)” value [2] is reported as “n.i. (n.i.: no inhibition detected (<30 % @ 100 μM))” and the “Sirt3 inhibition (class)” value [3] is reported as “n.i. (n.i.: no inhibition detected (<30 % @ 100 μM))”. The melting point was 190.6 °C.

Cc1cc(O)cc(C)c1/N=N/c1cncc(C(N)=O)c1 [7 a] showed an inhibition at 50 µM [1, 7] of 14%, an IC50 [2] of 7.9 ± 0.6 µM and an IC50 [3] of 9.5 ± 0.9 µM.

For CN(C)c1ccc(/N=N/c2cncc(C(N)=O)c2)cc1 [7 e], the inhibition at 10 µM [1, 7] was 17%, the inhibition at 10 µM [2] was 54% and the inhibition at 10 µM [3, 6] was 66%.

With COc1cc(/N=N/c2cncc(C(N)=O)c2)cc(OC)c1O [7 d] the inhibition at 10 µM [1, 7] was 10%, the inhibition at 10 µM [2] was 62% and the inhibition at 50 µM ([3]; @ 50 μM, read-out: Sirt3 inhibition, percent inhibition relative to controls) was 39%. The melting point was 250.2 °C.

In the case of Cc1cc(O)cc(C)c1/C=C/c1cncc(C(N)=O)c1 [compound 3], the IC50 [5] is listed as 25 µM.
